Assay results reported in ChEMBL document CHEMBL3507680, “University of Dundee, Gates Library screen for HepG2 cell viability”.

Test: Human HepG2 cell viability assay in 384 well format
Type: toxicity, cell-based
Set-up: dose 125 nL, time 70.5 hour; concentration not given beside the values
Conditions: HepG2 cells, read-out: Inhibition

Compound	cytotoxicity at 70.5 h [%]
O=C(N1CCOCC1)n1cnc2ccccc21	-11.5
COCCc1noc(C2CCCN(c3nc(N)nc4c3CCCC4)C2)n1 (stereo not drawn)	3.87
CNc1ncc(CN(C)C(=O)CCc2[nH]nc3c2CCCC3)cn1	-11.5
Cc1cccnc1CC(C)Nc1ncc(C)c(N(C)C)n1 (stereo not drawn)	2.64
CCCc1nccn1-c1ccc(C(C)O)cc1 (stereo not drawn)	-5.9
O=C(NCC1CCCCO1)c1cc(Cn2cnc3ccccc32)[nH]n1 (stereo not drawn)	-6.38
O=C(NCCSc1ccccc1)[C@H]1CNC[C@@H](C(=O)N2CCOCC2)C1	-7.93
Nc1ncccc1CN1C[C@H]2OC(=O)N(Cc3ccccn3)[C@H]2C1	-3.5
Clc1ccccc1C1(c2ccnc(C3CC3)n2)CCNCC1	48.5
COc1ccc(C(=O)C2CCCN(Cc3cnn(C)c3C)C2)c(OC)c1 (stereo not drawn)	-20.2
O=C(O)C1(n2ccnc2)CCN(Cc2ccc3occc3c2)CC1	-5.96
Cc1cc(CNC(=O)c2cc(COc3cncc(Cl)c3)on2)n[nH]1	16
COc1cc(C#N)ccc1OC12CCCN(CC1)C2 (stereo not drawn)	-8.26
CC(C)=CCN1C[C@H]2CC[C@@H]1CN(C(=O)Cn1c(C)cc(C)nc1=O)C2	-4.66
COc1ccnc(N2CCC(=O)N(CC3CC3)C(C(C)C)C2)n1 (stereo not drawn)	32.2
COCCNc1ncnc2c1CCN(C(=O)CC1CCC(=O)N1)CC2 (stereo not drawn)	-12.7
NC(=O)N1CCCC(C(=O)N2CCN(c3nsc4ccccc34)CC2)C1 (stereo not drawn)	-3.95
Cc1cccc(C)c1Oc1ncccc1CNC(=O)C1COC(=O)N1 (stereo not drawn)	-21.8
CN(C)Cc1nnc(C2CCN(c3ncccc3Cl)CC2)n1C1CC1	8.65
O=C(Nc1ccc(-c2ccco2)cc1)C1CCCN(Cc2ccon2)C1 (stereo not drawn)	1.57
CC(CCN1CCCn2nc(CNS(C)(=O)=O)cc2C1)c1ccccc1 (stereo not drawn)	17.7
COCCn1c(CN2CCCO2)cnc1S(=O)(=O)CC1CCCCC1	-2.9
CN(C)C(C(=O)N1CC(c2ccccn2)C1)c1cccc(F)c1 (stereo not drawn)	-2.09
CC(C)c1nc(CNc2nccc(CCC(F)(F)F)n2)cs1	-8.19
Cc1ccc(C)c2c(=O)cc(CN3CC[C@@H](N)[C@H](O)C3)[nH]c12	-3.81
CC(C)n1ccnc1C1CCN(Cc2ccc(C(F)(F)F)c(F)c2)CC1	23.4

Compound	cytotoxicity at 70.5 h [%]
CN1C(=O)CC(C(=O)O)C12CCN(c1ccc3c(n1)CCCC3)CC2 (stereo not drawn)	-5.19
O=C(O)[C@H]1C[C@@H](C(=O)NCc2ccncc2)CN(Cc2ccccc2)C1	-1.34
O=C(c1ccc(C2CCCN2C(=O)c2ccc[nH]2)s1)N1CCSCC1 (stereo not drawn)	-19.6
c1ccc(C(CNc2ncccn2)N2CCOCC2)nc1 (stereo not drawn)	-1.54
Cc1n[nH]c(C)c1-c1cc(-c2cc[nH]c2)nc(N)c1C#N	-12.3
Cc1cncc(NC(=O)c2ccc(CN3CCCC(C(N)=O)C3)cc2)c1 (stereo not drawn)	-0.673
Cc1ccc(C(=O)N2CCC3(CC2)c2ccccc2[C@@H](N)[C@@H]3O)c(=O)[nH]1	-7.97
Cc1cc(C)nc(N2CCC(C(=O)O)(n3ccc(C(C)(C)C)n3)CC2)n1	-10.1
COCCN1CCN(Cc2ccc(Cl)cc2)[C@H]2CS(=O)(=O)C[C@H]21	0.00609
O=C(NC1CC(=O)N(C2Cc3ccccc3C2)C1)c1ccsc1 (stereo not drawn)	-3.74
NC(=O)NCC(=O)N1CCCC(OCc2cccnc2)C1 (stereo not drawn)	47.2
CN(C)CC1(O)CCCN(Cc2cnc(-c3ccco3)nc2)CC1 (stereo not drawn)	-8.26
FC(F)(F)CCc1ccnc(N2CCN(Cc3ccccn3)CC2)n1	6.16
CC(C1CCN(Cc2ccccc2OC(F)F)CC1)N1CCOCC1 (stereo not drawn)	-8.64
CC(C)N1CC2(CCC1=O)CCN(C(=O)c1cc(F)ccc1Cl)CC2	-5.5
CCCN1CCN(C(=O)c2cccc3cccnc23)[C@H]2CS(=O)(=O)C[C@H]21	25.6
COC1CCN(S(=O)(=O)N2CCC3(CCCNC3=O)C2)CC1 (stereo not drawn)	-0.998
CC(C)CN1CCC(c2nnc(CN3CCCC3)n2C2CC2)CC1	-6.17
Cc1ccccc1-n1cc(-c2ccnc(N3CCCC(O)C3)n2)cn1 (stereo not drawn)	-3.81
CCc1ccc(CN2C[C@@H](C(=O)O)[C@H](c3ccccc3OC)C2)o1	-1.56
Cc1ccccc1SCC(=O)Nn1cnnc1	-9.7
CC(Cn1cncn1)NCc1ccc2nonc2c1 (stereo not drawn)	-5.99
CC[C@@H](c1ccccc1)n1c(CCN)n[nH]c1=O	-5.25
O=C(CCc1nc(Cl)n[nH]1)N1C[C@H](CO)C[C@H](CN2CCCC2)C1	-7.42
O=C(c1cc(Cl)c[nH]c1=O)N1C[C@@H]2CC[C@H](C1)N(Cc1ccccc1)C2	12.7
CCCc1cc(NCc2cc(C)on2)n2nccc2n1	14.2

Compound	cytotoxicity at 70.5 h [%]
COc1cccc([C@@H]2CN(C3CSCCSC3)C[C@H]2C(=O)O)c1	-1.5
CSc1ccc(C(C(=O)O)N2CCOCC2)cc1 (stereo not drawn)	-11.2
CSc1ccc(C(C(=O)O)N2CCCC2)cc1 (stereo not drawn)	-7.97
CO[C@H]1[C@@H]2CC[C@H]1CN(c1nc(C)nc3ccsc13)C2	19.4
c1cn(Cc2nnc(C3CCN(C4CCCCC4)CC3)n2C2CC2)cn1	-1.01
COc1ccc(C2Nc3ccccc3NC3=C2C(=O)NC3)cc1OC (stereo not drawn)	-7.99
CCN(Cc1cc(Cl)c(O)c(OC)c1)Cc1nc(COC)no1	-4.93
CC(=O)c1ccc(F)cc1-c1cc(NCCO)nc2[nH]ccc12	-0.208
COCC[C@]1(O)CCN(C(=O)C2CCN(C3CCCC3)CC2)C[C@H]1C	-5.71
COc1cc(C)ccc1S(=O)(=O)N[C@H]1CN(C(C)=O)C[C@@H]1C1CC1	18.1
Cc1cc(CN2CCN(C(C)C)C(CCO)C2)[nH]n1 (stereo not drawn)	9.92
Cc1ccc(CN2CCN(Cc3nccn3C)[C@H]3CS(=O)(=O)C[C@H]32)o1	-6.86
CC(C)(CNC(=O)c1ccco1)CNC(=O)c1ccco1	-1.35
CN(Cc1ccsc1)Cc1ccc(C2CCCCO2)o1 (stereo not drawn)	-3.14
N#CC1CCCN(C(=O)Cn2ncc(N3CCCC3)cc2=O)C1 (stereo not drawn)	-7.57
C[C@H](c1ccc(Cl)cc1)n1c(C2CC2)n[nH]c1=O	-3.55
CC(C)=CCN1CCN(Cc2nc3ccccc3[nH]2)[C@H]2CS(=O)(=O)C[C@H]21	-8.69
Cc1nc(-c2cc(F)c3c(c2)CC(CN)O3)c[nH]1 (stereo not drawn)	3.79
CCOCCC(=O)N(Cc1ccncc1)C(C)CC (stereo not drawn)	20.8
OC1CCCOC12CCN(Cc1nnc(-c3cccnc3)o1)CC2 (stereo not drawn)	0.216
CNS(=O)(=O)CCn1cc(-c2cc3c(cc2OC)CCC3)nn1	-7.97
CN(C)Cc1ccc(C2CCCCN2C(=O)c2cc(=O)[nH]c(=O)[nH]2)cc1 (stereo not drawn)	-5.8
CS(=O)(=O)c1cnc(CC2CC2)nc1C1CCCNC1 (stereo not drawn)	19.7
CN1CCC2(CCC1=O)CCN(C(=O)Cc1ccc(O)c(F)c1)CC2	2.31
CC(=O)c1cc(CN2C[C@@H](N(C)C)[C@H](C(C)C)C2)cs1	8.63
O=C(O)CSc1nnc(-c2ccco2)n1-c1ccccc1C(F)(F)F	-4.07
